For assay [1], the target named is T1, Cloned human M1 receptor (CHRM1) (Homo sapiens, UniProt P11229).
T1 construct: expressed in transfected cells; host or cells: HEK293
T1 sequence (P11229 1-460): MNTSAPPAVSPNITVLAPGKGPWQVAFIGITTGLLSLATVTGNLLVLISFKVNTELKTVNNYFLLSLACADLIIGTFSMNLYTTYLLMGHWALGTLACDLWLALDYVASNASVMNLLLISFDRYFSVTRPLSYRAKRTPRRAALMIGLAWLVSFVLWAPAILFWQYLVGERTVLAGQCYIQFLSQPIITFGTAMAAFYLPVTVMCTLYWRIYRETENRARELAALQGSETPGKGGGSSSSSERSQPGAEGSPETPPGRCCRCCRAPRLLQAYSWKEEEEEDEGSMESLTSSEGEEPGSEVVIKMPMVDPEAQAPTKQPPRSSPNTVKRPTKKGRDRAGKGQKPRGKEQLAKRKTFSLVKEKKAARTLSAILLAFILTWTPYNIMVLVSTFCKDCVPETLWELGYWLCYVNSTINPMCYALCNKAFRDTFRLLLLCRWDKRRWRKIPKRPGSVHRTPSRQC
Kind of assay: CHRM1 Ca++ Flux Assay (HEK293 M1 cells, agonist mode). It counts as cell-based. To be noted: for Emax: Percent Activity (PA), read-out: M1 FDSS PA %; for EC50: geometric mean if tested more than once, read-out: M1 FDSS EC50. Put shortly: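 HEK293 cells stably expressing human M1 were loaded with Ca++ dye, then given compounds (11-point dose, triplicate) in HBSS −Ca/−Mg, 20 mM HEPES. Ca++ flux was read over 3 min (agonist mode). Four-parameter curves were fitted, with activity as percent of carbachol EC100.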

Assay [2] concerns the target T2, human cloned CHRM2 receptor (Homo sapiens, UniProt P08172).
T2 construct: expressed in transfected cells; host or cells: CHO-K1 (M2_CHO)
T2 sequence (P08172 1-466): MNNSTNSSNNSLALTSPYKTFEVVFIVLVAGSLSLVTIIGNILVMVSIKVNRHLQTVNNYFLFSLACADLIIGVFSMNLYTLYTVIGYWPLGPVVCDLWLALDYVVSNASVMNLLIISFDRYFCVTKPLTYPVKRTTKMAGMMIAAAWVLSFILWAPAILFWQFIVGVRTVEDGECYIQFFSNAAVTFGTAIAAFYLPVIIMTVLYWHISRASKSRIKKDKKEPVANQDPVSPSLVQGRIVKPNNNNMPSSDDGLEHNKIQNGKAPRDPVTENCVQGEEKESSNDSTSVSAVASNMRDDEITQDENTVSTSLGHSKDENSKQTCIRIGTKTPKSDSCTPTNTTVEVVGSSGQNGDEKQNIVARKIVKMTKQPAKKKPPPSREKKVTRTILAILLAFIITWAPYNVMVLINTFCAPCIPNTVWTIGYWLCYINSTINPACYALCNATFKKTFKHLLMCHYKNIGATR
Description: CHRM2 Ca++ Flux Assay (M2_CHO cells, agonist mode). The class given is cell-based. To be noted: M2 CHO cells; for EC50: agonist mode, geometric mean if tested more than once, read-out: M2 FDSS EC50; for Emax: Percent Activity (PA) measured to EC100 of Carbachol, read-out: M2 FDSS PA %. The procedure, abridged: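 CHO-K1 cells stably expressing human CHRM2 were plated overnight at 12K cells/well and loaded with Ca++ dye for 1–2 h. They were then held 60 minutes in HBSS −Ca/−Mg, 20 mM HEPES, 2.5 mM probenecid, 20 μM ATP. Agonist-mode Ca++ flux was read over 3 minutes. Four-parameter fits of triplicates gave percent activity relative to carbachol EC100.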

In general, EC50 refers to the concentration that produces a half-maximal response.

For `CC1(COc2ccc(F)cc2C2CCN([C@@H]3COC4(C3)CN(c3nncs3)C4)CC2)COC1` [Example 2B, (S)-7-(4-(5-fluoro-2-((3-methyloxetan-3-yl)methoxy)phenyl)piperidin-1-yl)-2-(1,3,4-thiadiazol-2-yl)-5-oxa-2-azaspiro[3.4]octane], the Emax in assay [1] was found to be 91%; in assay [2], 35%. Further, the EC50 in assay [1] amounted to 1.14 µM; in assay [2] it was 0.416 µM.

Regarding `Fc1ccc(OCC2(F)COC2)c(C2CCN([C@@H]3COC4(C3)CN(c3nnco3)C4)CC2)c1` [Example 2J, (S)-7-(4-(5-fluoro-2-((3-fluorooxetan-3-yl)methoxy)phenyl)piperidin-1-yl)-2-(1,3,4-oxadiazol-2-yl)-5-oxa-2-azaspiro[3.4]octane], in assay [1], the Emax came to 103% and the EC50 amounted to 0.411 µM. In assay [2], the EC50 is 0.214 µM and the Emax was 62%.

As to `Cc1cc(COc2ccc(F)cc2C2CCN([C@@H]3COC4(C3)CN(c3nnco3)C4)CC2)on1` [Example 2G, (S)-7-(4-(5-fluoro-2-((3-methylisoxazol-5-yl)methoxy)phenyl)piperidin-1-yl)-2-(1,3,4-oxadiazol-2-yl)-5-oxa-2-azaspiro[3.4]octane], in assay [1], the Emax is 89% and the EC50 is 0.289 µM. In assay [2], the EC50 came out at 0.061 µM and the Emax came to 55%.

With `Fc1ccc(OC2CCOCC2)c(C2CCN([C@@H]3COC4(C3)CN(c3ncon3)C4)CC2)c1` [Example 6A, (S)-7-(4-(5-fluoro-2-((tetrahydro-2H-pyran-4-yl)oxy)phenyl)piperidin-1-yl)-2-(1,2,4-oxadiazol-3-yl)-5-oxa-2-azaspiro[3.4]octane], in assay [1], the Emax was 53% and the concentration giving a half-maximal response (EC50) is 0.887 µM. In addition, in assay [2], the EC50 was found to be 0.623 µM and the Emax worked out at 18%.

`Fc1cc(O[C@@H]2CCOC2)c(C2CCN([C@@H]3COC4(C3)CN(c3nnco3)C4)CC2)cc1F` [Example 1R, (S)-7-(4-(4,5-difluoro-2-(((R)-tetrahydrofuran-3-yl)oxy)phenyl)piperidin-1-yl)-2-(1,3,4-oxadiazol-2-yl)-5-oxa-2-azaspiro[3.4]octane]: in assay [1], the Emax came to 76% and the EC50 was 0.67 µM. In addition, in assay [2], the EC50 is 0.359 µM and the Emax was found to be 32%.

For the compound `Fc1ccc(OC[C@H]2CCOC2)c(C2CCN([C@@H]3COC4(C3)CN(c3nnco3)C4)CC2)c1` [Example 1I, (S)-7-(4-(5-fluoro-2-(((S)-tetrahydrofuran-3-yl)methoxy)phenyl)piperidin-1-yl)-2-(1,3,4-oxadiazol-2-yl)-5-oxa-2-azaspiro[3.4]octane], the figures for the Emax in assay [1] and in assay [2] were 54% and 32%, respectively. The EC50 in assay [1] was 0.98 µM; in assay [2], 0.531 µM.

On to `Fc1ccc(OC2COC2)c(C2CCN([C@@H]3COC4(C3)CN(c3ncon3)C4)CC2)c1` [Example 6B, (S)-7-(4-(5-fluoro-2-(oxetan-3-yloxy)phenyl)piperidin-1-yl)-2-(1,2,4-oxadiazol-3-yl)-5-oxa-2-azaspiro[3.4]octane], for which, in assay [1], the Emax was determined as 88% and the EC50 was found to be 0.49 µM. In assay [2], the EC50 was 0.39 µM and the Emax was 38%.

Values taken from patent US11485742B2, “2-azaspiro[3.4]octane derivatives as M4 agonists” (NOVARTIS AG, priority 2019, dated 2022).
